Reference: patent publication US6096725A, “Methods of using αGal oligosaccharides as immune system targeting agents” (Neose Technologies, Inc., priority 1997, dated 2000)
Where two headings read alike, the source gives them in different places.

Test system: hyperacute rejection (HAR) of porcine heart xenografted to the neck of a baboon
Format: in vivo
Conditions: for Onset of IgG, IgM and complement (C3) deposition at the endothelial surface: immunofluorescence
Description: Primate model for testing and application of αGal oligosaccharides and dosages thereof. Due to the many similarities between human and baboon immune systems (Neubauer et al., 1981, J. Immunogenetics, 8:433-442; Garver et al., 1980, Cytogenetics & Cell Genetics, 27:238-245; Brodsky et al., 1982, Immunogenetics, 155:151-166; Hammer, C., in Hardy, M. A. (ed.), Xenograft 25, 115-123 (Elsevier, N.Y., 1989); Stark, J. H., et al., Transplantation, 30 52(6):1072-1078 (December 1991); Hammer, C., in Cooper, D. K. C., et al. (eds.), Xenotransplantation, 429-438 (Springer-Verlag 1991)), and because of the large size of baboons, these animals are convenient experimental model recipients of pig organs. These non-human primates also express anti-pig antibodies, and reject pig organs hyperacutely (Lexer et al., 1986, J. Heart Transplant, 4:411-418; Ye, Y., Cooper, D. K. C., in Cooper, D. K. C., et al. (eds.), Xenotransplantation,389-393 (Springer-Verlag 1991); Cooper et al., 1991, J. Heart Transplant, 7:238-246, 1988; Platt et al., 1991, Transplantation, 52(2):214-220). A normal porcine heart was transplanted into the neck of a normal baboon. αGal pentasaccharide was infused (i.v.) to establish and maintain blood oligosaccharide levels predicted to inhibit HAR until infusate was exhausted (See Table 2). The ability of i.v. infused αGal pentasaccharide to block hyperacute rejection (HAR) of porcine heart xenografted to the neck of a baboon was determined and blood levels of αGal oligosaccharide, anti-αGal antibodies, and serum or plasma cytotoxicity toward pig kidney and mouse endothelial cells was monitored and correlated with the onset of HAR.
The heart was excised from the pig donor and transplanted in the neck of the baboon recipient using techniques essentially as described by Cooper et al., 1993, Transplantation, 56:769-777.
The two xenotransplant baboons were outfitted with an indwelling catheter to the femoral vein to infuse compound and a catheter to the femoral artery for blood sampling. Following the transplant procedure, but just prior to providing circulatory access to the xenograft, the oligosaccharide was administered by i.v. pump through the catheter in a 15 min loading dose, followed by continuous 4 hour infusion to achieve 2.5 mM blood concentration (as determined by calculations presented in Table 2). […] Blood specimens collected for plasma were immediately centrifuged and the plasma withdrawn and stored frozen at -20° C. Blood specimens collected for serum were clotted at 4° C. overnight and the withdrawn serum frozen at -20° C. The αGal pentasaccharide was prepared according to the enzymatic methods set forth in example 6.2 and stored as a dry, white, solid powder. The oligosaccharide was dissolved in 250 mL sterile infusion grade saline to a concentration of 0.154 g/mL, or 177 mM. Induction anesthesia was with ketamine hydrochloride 5 mg/kg/body weight in and 0.5 mg/kg of xylazine iv. Intravenous fluid of approximately 20 ml/kg body weight was given during the course of the operative procedure through either a peripheral or central vein. Atropine 0.5 mg/kg was given iv. The larynx was sprayed with 2% lidocaine. Endotracheal intubation was carried out. The endotracheal tube was taped to the maxilla. The pig or baboon was ventilated with a Harvard positive pressure ventilator. Anesthesia was maintained with nitrous oxide 2 L/min and oxygen 1 L/min and 0.2%-1.2% halothane, at a respiratory rate of approximately 10 to 20 breaths per minute depending on the size of the animal. Tidal volume (approximately 20-24 ml/kg) was also adjusted to suit the size of the animal, and the ventilatory pressure was adjusted to approximately […]. Blood gases were checked, and ventilation adjusted as necessary. Arterial pressure was monitored in the recipient baboon by intermittent automatic cuff recordings. […]

CC(=O)N[C@H]1[C@H](O[C@H]2[C@@H](O)[C@@H](CO)O[C@@H](O[C@H]3[C@H](O)[C@@H](O)C(O)O[C@@H]3CO)[C@@H]2O)O[C@H](CO)[C@@H](O[C@@H]2O[C@H](CO)[C@H](O)[C@H](O[C@H]3O[C@H](CO)[C@H](O)[C@H](O)[C@H]3O)[C@H]2O)[C@@H]1O (stereo partly shown) [αGal pentasaccharide, Galα1-3Galβ1-4GlcNAcβ1-3Galβ1-4Glc]
Onset of IgG, IgM and complement (C3) deposition at the endothelial surface (first baboon): 1.5 h | Alteration in blood chemistry (in vivo): increase in creatinine phosphokinase | Hematology results (in vivo): unremarkable | Xenograft histology (initial 3 hours of infusion, data not shown): Essentially normal histology | Onset of IgG, IgM and complement (C3) deposition at the endothelial surface (second baboon): 3 h | Xenograft heart beat during infusion (two baboons, four hour infusion, result in words): an even beat was maintained for the duration of the four hour oligosaccharide infusion | Time of xenograft excision after cessation of the 4 hour infusion (two baboons, untreated pig hearts rejected in 5-10 minutes): more than 1 hour
